Results published in patent publication US10280198B2, “Therapeutic agents for reducing parathyroid hormone levels” (KAI PHARMACEUTICALS, INC., priority 2009, dated 2019).
Like-named read-outs stand apart in the source and are kept apart here. Square brackets hold non-standard residues; d marks the D form. Peptide text beside a SMILES is read from it. dNle = CCCC[C@@H](N)C(=O)O; dNva = CCC[C@@H](N)C(=O)O

What was measured:
[1] = test system: rat peritoneal mast cells; test: In vitro histamine induction in rat peritoneal mast cells; assay type: cell-based
Experimental: To further evaluate the relationship between compound structure and histamine release, a series of compounds was prepared and assessed for their ability to trigger induction of histamine in an in vitro assay using rat peritoneal mast cells. In this assay, compounds are incubated at 10 μM for 15 minutes at 37° C. with cells isolated from peritoneal lavage of SD rats. Following incubation, cell medium is collected and histamine is determined.
Accordingly, and as can be appreciated in view of the PTH data and the histamine data described hereinabove, in one embodiment, a compound that has activity to decrease PTH level in a subject in the absence of a histamine response is contemplated. In certain embodiments, absence of a histamine response intends a dose of the compound that produces a less than 10-fold, more preferably 8-fold, still more preferably 5-fold, and even still more preferably 3-fold, increase in histamine, measured in vitro in an assay as described herein, where the fold change is determined based on histamine levels before incubation with the compound and after 15 minutes incubation with compound. In a specific embodiment, the histamine response is determined in an in vitro assay using rat peritoneal mast cells isolated from peritoneal lavage of normal Sprague Dawley rats, and where the fold change is determined based on histamine levels before incubation with the compound and after 15 minutes incubation with compound. In the studies conducted herein, the in vitro evaluation of histamine release was performed using isolated rat peritoneal mast cells isolated by peritoneal lavage using cold HBSS+25 mM HEPES pH 7.4 containing heparin (5 u/mL). Cells were washed twice in stimulation buffer (HBSS+25 mM HEPES pH 7.4) and incubated with 10 μM of compound in stimulation buffer (HBSS+25 mM HEPES pH 7.4) for 15 minutes in a 96-well plate ([…]) at 37° C. Cell supernatant was analyzed for histamine using histamine EIA kit (Cayman #589651).
For in vitro evaluation of histamine release, isolated rat peritoneal mast cells were isolated by performing peritoneal lavage using cold HBSS+25 mM HEPES pH 7.4 containing heparin (5 u/mL). Cells were washed twice in stimulation buffer (HBSS+25 mM HEPES pH 7.4) and incubated with 10 μM of compound in stimulation buffer (HBSS+25 mM HEPES pH 7.4) for 15 minutes in a 96-well plate (10^6/well) at 37° C. Cell supernatant was analyzed for histamine using histamine EIA kit (Cayman #589651).

plasma PTH = test: In vivo PTH lowering after IV bolus in isoflurane-anesthetized normal Sprague Dawley rats; design: species or system rat; settings: for 0.5 mg/kg IV bolus % PTH AUC of saline control: normal rats, AUC 1-4 h
Experimental: The peptides were administered intravenously at a dose of 0.5 mg/kg into isoflurane-anesthetized normal Sprague Dawley rats. A control group of rats was treated with saline. Blood was drawn prior to dosing and every hour for 4 hours. Rats were maintained under isoflurane anesthesia for the entire study. […] Percent PTH reduction was calculated according to the following formula: AUCcmpd treated/AUCsaline control*100.
An intravenous (IV) bolus of saline was used as a control. Plasma (K2EDTA) PTH levels were assessed prior to dosing and 1, 2, 3 and 4 hours after dosing. Rats were maintained under isoflurane anesthesia for the entire study. […] In FIG. 2B, PTH is shown as percent of the baseline pre-dose value.
A series of compounds having an L-amino acid residue substituted for a D-amino acid residue were prepared. The compounds were administered as an IV bolus to normal Sprague Dawley rats at a dose of 0.5 mg/kg. An intravenous (IV) bolus of saline was used as a control. […] Rats were maintained under isoflurane anesthesia for the entire study.

[2] = Table 9, 10 μM, 15 minutes, 37° C.

Row | Histamine in vitro Fold change of non-treated at 10 uM [1] [fold] | Compound | 0.5 mg/kg IV bolus % PTH AUC of saline control (plasma PTH; Table 6) [%] | further results
1 | 4.3 | CCCC[C@@H](NC(=O)[C@@H](CCCNC(=N)N)NC(=O)[C@@H](C)NC(=O)[C@@H](CCCNC(=N)N)NC(=O)[C@@H](CCCNC(=N)N)NC(=O)[C@@H](CS)NC(C)=O)C(=O)N[C@H](CCCNC(=N)N)C(N)=O [SEQ ID NO: 133, Ac-crrar-dNle-r-NH2] (Ac-[dC][dR][dR][dA][dR][dNle][dR]-NH2) | – | 0.5 mg/kg IV bolus % PTH AUC of saline control (plasma PTH; Table 7): 26%
2 | 1.8 | CCC[C@@H](NC(=O)[C@@H](CCCNC(=N)N)NC(=O)[C@@H](CCCNC(=N)N)NC(=O)[C@@H](CCCNC(=N)N)NC(=O)[C@@H](C)NC(=O)[C@@H](CS)NC(C)=O)C(=O)N[C@H](CCCNC(=N)N)C(N)=O [SEQ ID NO: 131, Ac-carrr-dNva-r-NH2] (Ac-[dC][dA][dR][dR][dR][dNva][dR]-NH2) | – | 0.5 mg/kg IV bolus % PTH AUC of saline control (plasma PTH; Table 7): 54%
3 | – | CC(=O)N[C@H](CS)C(=O)N[C@H](CCCNC(=N)N)C(=O)N[C@H](CCCNC(=N)N)C(=O)N[C@H](CCC(=O)O)C(=O)N[C@H](CCCNC(=N)N)C(=O)N[C@H](C)C(=O)N[C@H](CCCNC(=N)N)C(N)=O [SEQ ID NO: 107, Ac-crrerar-NH2] (Ac-[dC][dR][dR][dE][dR][dA][dR]-NH2) | 56 | Histamine in vitro Fold change of non-treated at 10 uM [1, 2]: 0.6 fold
4 | 1.1 | CC(=O)N[C@H](CS)C(=O)N[C@H](CCCNC(=N)N)C(=O)N[C@H](CCCNC(=N)N)C(=O)N1CCC[C@@H]1C(=O)N[C@H](CCCNC(=N)N)C(=O)N[C@H](C)C(=O)N[C@H](CCCNC(=N)N)C(N)=O [SEQ ID NO: 106, Ac-crrprar-NH2] (Ac-[dC][dR][dR][dP][dR][dA][dR]-NH2) | 68 | –
5 | 1.2 | CC(=O)N[C@H](CS)C(=O)N[C@H](CCCNC(=N)N)C(=O)N[C@H](CCCNC(=N)N)C(=O)N[C@H](CCC(N)=O)C(=O)N[C@H](CCCNC(=N)N)C(=O)N[C@H](C)C(=O)N[C@H](CCCNC(=N)N)C(N)=O [SEQ ID NO: 112, Ac-crrqrar-NH2] (Ac-[dC][dR][dR][dQ][dR][dA][dR]-NH2) | 4 | –
6 | 1.2 | CC(=O)N[C@H](CS)C(=O)N[C@H](C)C(=O)N[C@H](CCCNC(=N)N)C(=O)N[C@H](CCCNC(=N)N)C(=O)N[C@H](CCCNC(=N)N)C(=O)N[C@H](CO)C(=O)N[C@H](CCCNC(=N)N)C(N)=O [SEQ ID NO: 92, Ac-carrrsr-NH2] (Ac-[dC][dA][dR][dR][dR][dS][dR]-NH2) | 6 | –
7 | 1.1 | CCC[C@@H](NC(=O)[C@@H](CCCNC(=N)N)NC(=O)[C@@H](C)NC(=O)[C@@H](CCCNC(=N)N)NC(=O)[C@@H](CCCNC(=N)N)NC(=O)[C@@H](CS)NC(C)=O)C(=O)N[C@H](CCCNC(=N)N)C(N)=O [SEQ ID NO: 135, Ac-crrar-dNva-r-NH2] (Ac-[dC][dR][dR][dA][dR][dNva][dR]-NH2) | – | 0.5 mg/kg IV bolus % PTH AUC of saline control (plasma PTH; Table 7): 8%
8 | – | CCC[C@@H](NC(=O)[C@@H](CCCNC(=N)N)NC(=O)[C@@H](CCCNC(=N)N)NC(=O)[C@@H](CCCNC(=N)N)NC(=O)[C@@H](CCC)NC(=O)[C@@H](CS)NC(C)=O)C(=O)N[C@H](CCCNC(=N)N)C(N)=O [SEQ ID NO: 132, Ac-c-dNva-rrr-dNva-r-NH2] (Ac-[dC][dNva][dR][dR][dR][dNva][dR]-NH2) | – | Histamine in vitro Fold change of non-treated at 10 uM [1, 2]: 4.1 fold; 0.5 mg/kg IV bolus % PTH AUC of saline control (plasma PTH; Table 7): 27%
9 | 1.8 | CC(=O)N[C@H](CS)C(=O)N[C@H](CCCNC(=N)N)C(=O)N[C@H](CCCNC(=N)N)C(=O)NCC(=O)N[C@H](CCCNC(=N)N)C(=O)N[C@H](C)C(=O)N[C@H](CCCNC(=N)N)C(N)=O [SEQ ID NO: 105, Ac-crrGrar-NH2] (Ac-[dC][dR][dR]G[dR][dA][dR]-NH2) | 69 | –
10 | 2.0 | CC(=O)N[C@H](CS)C(=O)N[C@H](CCCNC(=N)N)C(=O)N[C@H](CCCNC(=N)N)C(=O)N[C@H](CO)C(=O)N[C@H](CCCNC(=N)N)C(=O)N[C@H](C)C(=O)N[C@H](CCCNC(=N)N)C(N)=O [SEQ ID NO: 111, Ac-crrsrar-NH2] (Ac-[dC][dR][dR][dS][dR][dA][dR]-NH2) | 4 | –
11 | – | CC(=O)N[C@H](CS)C(=O)N[C@H](C)C(=O)N[C@H](CCCNC(=N)N)C(=O)N[C@H](CCCNC(=N)N)C(=O)N[C@H](CCCNC(=N)N)C(=O)N[C@H](CC(C)C)C(=O)N[C@H](CCCNC(=N)N)C(N)=O [SEQ ID NO: 85, Ac-carrrlr-NH2] (Ac-[dC][dA][dR][dR][dR][dL][dR]-NH2) | 140 | Histamine in vitro Fold change of non-treated at 10 uM [1, 2]: 2.5 fold
12 | 4.5 | CC(=O)N[C@H](CS)C(=O)N[C@H](CCCNC(=N)N)C(=O)N[C@H](CCCNC(=N)N)C(=O)N[C@H](CC(C)C)C(=O)N[C@H](CCCNC(=N)N)C(=O)N[C@H](C)C(=O)N[C@H](CCCNC(=N)N)C(N)=O [SEQ ID NO: 114, Ac-crrlrar-NH2] (Ac-[dC][dR][dR][dL][dR][dA][dR]-NH2) | 1 | –
13 | 1.8 | CC[C@@H](C)[C@@H](NC(=O)[C@@H](CCCNC(=N)N)NC(=O)[C@@H](CCCNC(=N)N)NC(=O)[C@@H](CCCNC(=N)N)NC(=O)[C@@H](C)NC(=O)[C@@H](CS)NC(C)=O)C(=O)N[C@H](CCCNC(=N)N)C(N)=O [SEQ ID NO: 84, Ac-carrrir-NH2] (Ac-[dC][dA][dR][dR][dR][dI][dR]-NH2) | 161 | –
14 | 2.0 | CC(=O)N[C@H](CS)C(=O)N[C@H](C)C(=O)N[C@H](CCCNC(=N)N)C(=O)N[C@H](CCCNC(=N)N)C(=O)N[C@H](CCCNC(=N)N)C(=O)N[C@H](Cc1c[nH]cn1)C(=O)N[C@H](CCCNC(=N)N)C(N)=O [SEQ ID NO: 89, Ac-carrrhr-NH2] (Ac-[dC][dA][dR][dR][dR][dH][dR]-NH2) | 48 | –
15 | 3.0 | CC[C@@H](C)[C@@H](NC(=O)[C@@H](CS)NC(C)=O)C(=O)N[C@H](CCCNC(=N)N)C(=O)N[C@H](CCCNC(=N)N)C(=O)N[C@H](CCCNC(=N)N)C(=O)N[C@H](C)C(=O)N[C@H](CCCNC(=N)N)C(N)=O [SEQ ID NO: 96, Ac-cirrrar-NH2] (Ac-[dC][dI][dR][dR][dR][dA][dR]-NH2) | 33 | –
16 | 1.2 | CC(=O)N[C@H](CS)C(=O)N[C@H](C)C(=O)N[C@H](CCCNC(=N)N)C(=O)N[C@H](CCCNC(=N)N)C(=O)N[C@H](CCCNC(=N)N)C(=O)N[C@@H](C(=O)N[C@H](CCCNC(=N)N)C(N)=O)C(C)C [SEQ ID NO: 87, Ac-carrrvr-NH2] (Ac-[dC][dA][dR][dR][dR][dV][dR]-NH2) | 79 | –
17 | 1.0 | CC(=O)N[C@H](CS)C(=O)N[C@H](CCCNC(=N)N)C(=O)N[C@H](C)C(=O)N[C@H](C)C(=O)N[C@H](CCCNC(=N)N)C(=O)N[C@H](CCCNC(=N)N)C(=O)N[C@H](CCCNC(=N)N)C(N)=O [SEQ ID NO: 24, Ac-craarrr-NH2] (Ac-[dC][dR][dA][dA][dR][dR][dR]-NH2) | – | % PTH reduction of baseline at 1 hour post IV administration of 0.5 mg/kg compound (plasma PTH; Table 2, isoflurane-anesthetized normal rats, 0.5 mg/kg IV, 1 hour): 8%; 0.5 mg/kg IV bolus % PTH AUC of saline control (plasma PTH; Table 2): 9%
18 | 0.9 | CC(=O)N[C@H](CS)C(=O)N[C@H](C)C(=O)N[C@H](CCCNC(=N)N)C(=O)N[C@H](CCCNC(=N)N)C(=O)N[C@H](CCCNC(=N)N)C(=O)NCC(=O)N[C@H](CCCNC(=N)N)C(N)=O [SEQ ID NO: 93, Ac-carrrGr-NH2] (Ac-[dC][dA][dR][dR][dR]G[dR]-NH2) | 5 | –
